# Results from article PMC7594840, “Identification of histone deacetylase inhibitors with (arylidene)aminoxy scaffold active in uveal melanoma cell lines” (Journal of Enzyme Inhibition and Medicinal Chemistry, 2020).
# Experiments:
# HDAC8 = biological target: T1, HDAC8 (Homo sapiens, UniProt Q9BY41); test: Microfluidic chip-based HDAC inhibition assay (Calliper off-chip mobility shift), HDAC8; assay type: biochemical; settings: duplicate, 10-point dose curve, 3-fold serial dilution from 30 μM
# T1 construct: purchased BPS Bioscience
# T1 sequence (Q9BY41 1-377): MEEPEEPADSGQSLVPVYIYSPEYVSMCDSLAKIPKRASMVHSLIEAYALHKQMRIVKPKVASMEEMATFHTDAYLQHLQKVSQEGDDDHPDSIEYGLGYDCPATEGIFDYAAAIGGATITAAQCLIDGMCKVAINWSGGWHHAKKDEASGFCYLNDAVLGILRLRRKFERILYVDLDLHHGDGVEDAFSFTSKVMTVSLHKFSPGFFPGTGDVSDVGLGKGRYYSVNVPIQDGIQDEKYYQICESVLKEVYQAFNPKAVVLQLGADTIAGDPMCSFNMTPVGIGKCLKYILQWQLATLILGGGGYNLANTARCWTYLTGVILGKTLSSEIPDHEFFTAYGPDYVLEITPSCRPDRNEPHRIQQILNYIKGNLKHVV
# Description: Test compounds were screened against human histone deacetylases (HDACs) 1, 3, 6, and 8 using the Calliper off-chip mobility shift assay technology. All HDACs were purchased from BPS Bioscience and four selective substrates were used according to the targeted isozyme. […] Buffers components, except for CR-3 (LabChip Coating Reagent 3, purchased from PerkinElmer, Product Number 760050) and Panobinostat (LBH589, purchased from ApexBio Technology)[35]^,[36] were purchased from Sigma Aldrich. […] (all purchased from Selleck Chemicals).
# 92.1 cells = test: MTT cell viability assay, UM cell line 92.1; assay type: cell-based, human; settings: 72 h treatment, compared with SAHA and LD10
# Procedure: (§1) The anti-proliferative effects of the most promising HDAC inhibitors, VS16, VS13, SN2, and LD10 were evaluated on human UM cell lines (92.1 and Mel270) and SAHA was used as a positive control. First, we assessed by MTT assay the cell viability after a 72 h treatment at different concentrations. […] Similar results were found for ovarian carcinoma cell line A2780 and to a lesser extent for SKOV3 (Supplementary Figure S2).
# (§2) Figure 7. MTT. In vitro cytotoxicity at the 72 h time point of the different compounds in human UM cell lines 92.1 and Mel270, as assessed by the MTT cell viability assay. Data are expressed as percent of control with the DMSO solvent, which was used at the same amount present in the highest compound concentration. Error bars represent SD of quadruplicates. One representative experiment is shown.
# (§3) Treatments with the compounds were performed with slight differences, according to the final use of the samples. For the cell viability assay with MTT, cells were seeded in 96-well flat-bottom plates in culture medium at 5 × 10^3 cells/well, whereas for cell cycle analysis and QRT-PCR cells were seeded in 24-well plates at 5 × 10^4 cells/well. The day after, a culture medium containing the appropriate amount of compounds or their solvent control DMSO was added, and treatments were carried out for the indicated time.
# (§4) Cell viability after treatment was evaluated by a microculture tetrazolium reduction assay using MTT [3–(4,5-dimethyltiazol-2-yl) 2,5-diphenyltetrazolium bromide; Sigma]. At 72 h of treatment, 20 μl of MTT stock solution (2 mg/ml in PBS) were added to 200 μl cell cultures for an additional 4 h of incubation. MTT-containing culture medium was then removed and precipitated formazan was dissolved in 100 μl of DMSO. Results were read within 15 min in a microplate reader spectrometer at 540 nm (MEDGENIX 400 ATC, Medgenix Diagnostics), and the means of quadruplicates were calculated. Cell survival was expressed as a percentage of control samples.
# Mel270 cells = test: MTT cell viability assay, UM cell line Mel270; assay type: cell-based, human; settings: 72 h treatment, compared with SAHA and LD10
# Procedure: as §1, §2, §3, §4
compound,measurement,setting,value
"O=C(CCCCO/N=C/c1cnc2ccccc2c1)NO [Compound 2f, (E)-N-hydroxy-5-(((quinolin-3-ylmethylene)amino)oxy)pentanamide]",IC50,HDAC8,9.29 µM
same,effect on cell viability (MTT),92.1 cells,stronger effect
same,effect on cell viability (MTT),Mel270 cells,stronger effect
